This note sets out measurements from patent publication US12344618B2, “Heterotricyclic derivative compound and use of same” (HANMI PHARMACEUTICAL CO., LTD., priority 2019, dated 2025).

A short description of data set [1]: Metabolic stability in human liver microsomes. As to conditions: 5 μM compound, 1 mg/mL human liver microsomes, 37° C., NADPH regenerating system. Type of data set: in vitro ADME. The method, then:
(§1) In order to confirm the metabolic stability of the synthetic compounds in the liver, 5 μM test compound and 1 mg/mL human, dog, rat or mouse liver microsomes were allowed to react with each other at 37° C. in the presence of the NADPH regenerating system for 1 hour. After 1 hour, the reaction was terminated and the supernatant obtained by centrifugation was analyzed by HPLC. With the peak value obtained as the analysis result, the residual amount (%) was calculated using the following equation through the peak value of the test compound after 1 hour of the reaction versus the peak value of the test compound at 0 min. Residual amount (%)=(peak value of test compound after 1 hour of reaction/peak value of test compound at 0 min)×100

The next data set relates to KMS-11. Put plainly: Cell growth inhibition test, KMS-11. Type of data set: cell-based. As to conditions: Homo sapiens, 240 h; KMS-11, culture time 10 days; read-out: Cell growth inhibitory activity (GI50, nM) KMS-11. The method, then:
(§2) In order to confirm the inhibitory effects of the synthetic compounds against the growth of blood cancer cell lines, evaluation was performed against KARPAS 422, RPMI 8226, KMS-11, JeKo-1, MV-4-11, Mino, Pfeiffer, SU-DHL-4, and RS4; 11 cell lines. A test for the Pfeiffer and SU-DHL-4 cell lines was performed by KYinno Co., Ltd., a test for the RS4; 11 cell line was performed by Shanghai Chempartner Co., Ltd., and a test for the Kasumi-1, MV-4-11, MM.1S, KMS-11, JeKo-1, Mino (ATCC), RPMI 8226 (KCLB), and KARPAS 422 (ECACC) cell lines was performed after purchase.
(§3) DMSO at a final concentration of 0.1% or less or a DMSO solution of each of the synthetic compounds was added to media to have the concentration and treatment time described in Table 5 below, and cells were cultured at 37° C. under 5% CO2. Each type of the cultured cells was seeded in 6-well plates or 48-96 well plates, and subculture or medium replacement was performed every 3 to 4 days. Next, the cells were subcultured for a total of 7 to 14 days, and then seeded in 96-well plates. 3 to 5 days before the measurement of the effect, the cells were seeded in 96-well plates, and then the absorbance (Tz) on the day of seeding was measured. The absorbance after the reaction was measured by the plate reader device Synergy NeoAlpha (Biotek) using Cell-Titer-Glo Cell Viability Assay (Promega, G7573) according to the attached manual. Based on the absorbance (Tz) measured on the seeding day and the absorbance of each of the DMSO-treated group (C) and the sample-added group (Ti) measured on the day of effect determination, the percentage of cell proliferation inhibition was calculated according to the following Equation 1. [(Ti−Tz)/(C−Tz)]×100 for concentrations for which Ti≥Tz […] for concentrations for which Ti<Tz. [Equation 1]

The next data set deals with MM.1S. Put plainly: Cell growth inhibition test, MM.1S. The data set is classed as cell-based. As to conditions: Homo sapiens, MM1.S, 264 h, culture time 11 days, read-out: Cell growth inhibitory activity (GI50, nM) MM.1S. The method, then: as §2, §3
Data set [2] in a line: Metabolic stability in dog liver microsomes. To be noted: 5 μM compound, 1 mg/mL dog liver microsomes, 37° C., NADPH regenerating system. Type of data set: in vitro ADME. The method, then: as §1
Another data set relates to RPMI8226. Put plainly: Cell growth inhibition test, RPMI8226. As to conditions: Homo sapiens, RPMI-8226, 168 h; RPMI8226, culture time 7 days; read-out: Cell growth inhibitory activity (GI50, nM) RPMI8226. The data set is classed as cell-based. The method, then:
as §2, §3

For data set [3], the system named is Pfeiffer (EZH2 A677G mutation). The data set is described as follows: Cell growth inhibition test, Pfeiffer. To be noted: Homo sapiens, read-out: Cell growth inhibitory activity (GI50, nM) Pfeiffer (EZH2 A677G mutation). The data set is classed as cell-based. The method, then:
as §3, with “Each” for “DMSO at a final concentration of 0.1% or less or a DMSO solution of each of the synthetic compounds was added to media to have the concentration and treatment time described in Table 5 below, and cells were cultured at 37° C. under 5% CO2. Each”

Data set [4] in a line: Mouse pharmacokinetics, oral single dose. The data set is classed as in vivo. To be noted: male, ICR, mouse, plasma, po, 30 mg/kg, mice (ICR, male), oral single dose 30 mg/kg; for AUC: read-out: Area under oral curve (AUC); for half-life: read-out: Half life T1/2 (converted). The method, then:
Pharmacokinetics of the synthetic compounds as EZH2 inhibitors in mice (ICR, 8-week-old, male) were tested.
The oral administration group was maintained in a fasting state from the day before the test to 4 hours after administration of the test compound. On the day of administration of the test compound, the weight of each animal was measured and each synthetic compound was formulated using a selected solvent based on 30 mg/kg (10 mL/kg). Each test compound was administered orally in a single dose, a certain amount of the blood was taken at a predetermined time, plasma was isolated therefrom, and the concentration of each test compound in the plasma was analyzed using LC-MS/MS (Waters UPLC H-Class/Xevo TQ; Waters, USA). Pharmacokinetic coefficients were calculated by a linear-log trapezoidal summation formula using a non-compartment analysis of the Phoenix™ WinNonlin (Certara, USA) program through the plasma concentration curve over time.

The subject of data set [5] is KARPAS-422 (EZH2 Y641N mutation). Put plainly: Cell growth inhibition test, KARPAS-422. Type of data set: cell-based. To be noted: KARPAS-422, culture time 7 days, read-out: Cell growth inhibitory activity (GI50, nM) KARPAS-422 (EZH2 Y641N mutation).
Another data set relates to Mino. The data set is described as follows: Cell growth inhibition test, Mino. Type of data set: cell-based. To be noted: Homo sapiens, 336 h, culture time 14 days, read-out: Cell growth inhibitory activity (GI50, nM) Mino. The method, then: as §2, §3
The test system of a further data set is MV4-11. The data set is described as follows: Cell growth inhibition test, MV4-11. The data set is classed as cell-based. As to conditions: Homo sapiens, 240 h; MV4-11, culture time 10 days; read-out: Cell growth inhibitory activity (GI50, nM) MV4-11. The method, then: as §2, §3
The nature of data set [6]: Metabolic stability in mouse liver microsomes. As to conditions: 5 μM compound, 1 mg/mL mouse liver microsomes, 37° C., NADPH regenerating system. Type of data set: in vitro ADME. The protocol: as §1
The nature of data set [7]: Metabolic stability in rat liver microsomes. Type of data set: in vitro ADME. As to conditions: 5 μM compound, 1 mg/mL rat liver microsomes, 37° C., NADPH regenerating system. The protocol:
as §1

In a further data set the test system is RS4;11. The data set is described as follows: Cell growth inhibition test, RS4;11. To be noted: Homo sapiens, read-out: Cell growth inhibitory activity (GI50, nM) RS4;11. The data set is classed as cell-based. The method, then: as §2, §3
The subject of another data set is Kasumi-1. Put plainly: Cell growth inhibition test, Kasumi-1. Type of data set: cell-based. As to conditions: Homo sapiens, 240 h; Kasumi-1, culture time 10 days; read-out: Cell growth inhibitory activity (GI50, nM) Kasumi-1. The protocol:
as §2, §3

Another data set deals with JeKo-1. The data set is described as follows: Cell growth inhibition test, JeKo-1. Type of data set: cell-based. To be noted: Homo sapiens, 240 h; JeKo-1, culture time 10 days; read-out: Cell growth inhibitory activity (GI50, nM) JeKo-1. The protocol:
as §2, §3

The subject of a further data set is SU-DHL-4. Put plainly: Cell growth inhibition test, SU-DHL-4. To be noted: Homo sapiens, read-out: Cell growth inhibitory activity (GI50, nM) SU-DHL-4. Type of data set: cell-based. The protocol:
as §2, §3

The next data set has as its target EZH2 (Homo sapiens, UniProt Q15910). The data set is described as follows: Inhibitory activity against EZH2 methyltransferase (radiometric scintillation proximity assay).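 Further: Read-out is substrate peptide methylation, captured on streptavidin-coated SPA beads and counted by scintillation, with the reaction run in Tris-HCl buffer at pH 8.0 containing 1% DMSO.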 To be noted: Enzyme inhibitory activity (IC50, nM) EZH2, 2.3 nmol/L enzyme, 90 minutes, room temperature.
A further data set deals with T1, EZH1 (Homo sapiens, UniProt Q92800).
T1 construct: purchased Reaction Biology Corp. (contract assay)
The data set is described as follows: Inhibitory activity against EZH1 methyltransferase (radiometric scintillation proximity assay).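 Further: Read-out is methylation of a substrate peptide, captured on streptavidin-coated SPA beads and counted by scintillation, in Tris-HCl buffer at pH 8.0 with 1% DMSO.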 The data set is classed as biochemical. To be noted: 2.3 nmol/L enzyme, 90 minutes, room temperature.

Where [8] appears, read: Homo sapiens, KARPAS-422, 168 h.

Read-outs that look alike come from different tables or passages of the source.

EZH2, sequence (Q15910 whole entry): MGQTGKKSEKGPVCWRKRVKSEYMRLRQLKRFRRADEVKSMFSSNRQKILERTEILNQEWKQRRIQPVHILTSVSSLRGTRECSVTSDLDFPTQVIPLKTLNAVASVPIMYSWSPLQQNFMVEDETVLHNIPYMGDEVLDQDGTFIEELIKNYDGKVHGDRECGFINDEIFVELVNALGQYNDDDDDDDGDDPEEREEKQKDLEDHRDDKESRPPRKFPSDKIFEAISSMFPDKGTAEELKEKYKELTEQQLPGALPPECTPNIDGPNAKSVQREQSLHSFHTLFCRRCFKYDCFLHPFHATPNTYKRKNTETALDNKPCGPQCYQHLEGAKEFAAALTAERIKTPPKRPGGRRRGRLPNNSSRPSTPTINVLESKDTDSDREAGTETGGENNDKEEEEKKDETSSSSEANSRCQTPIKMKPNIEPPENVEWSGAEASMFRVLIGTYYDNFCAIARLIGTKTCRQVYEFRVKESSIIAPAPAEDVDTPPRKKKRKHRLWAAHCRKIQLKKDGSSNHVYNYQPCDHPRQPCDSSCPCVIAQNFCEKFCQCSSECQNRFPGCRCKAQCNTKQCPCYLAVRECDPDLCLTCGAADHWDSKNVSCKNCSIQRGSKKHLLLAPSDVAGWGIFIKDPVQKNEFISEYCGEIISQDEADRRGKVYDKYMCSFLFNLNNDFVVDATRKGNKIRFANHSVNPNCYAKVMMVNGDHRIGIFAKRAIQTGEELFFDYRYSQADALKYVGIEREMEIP
EZH2, sequence (O75530 whole entry partner): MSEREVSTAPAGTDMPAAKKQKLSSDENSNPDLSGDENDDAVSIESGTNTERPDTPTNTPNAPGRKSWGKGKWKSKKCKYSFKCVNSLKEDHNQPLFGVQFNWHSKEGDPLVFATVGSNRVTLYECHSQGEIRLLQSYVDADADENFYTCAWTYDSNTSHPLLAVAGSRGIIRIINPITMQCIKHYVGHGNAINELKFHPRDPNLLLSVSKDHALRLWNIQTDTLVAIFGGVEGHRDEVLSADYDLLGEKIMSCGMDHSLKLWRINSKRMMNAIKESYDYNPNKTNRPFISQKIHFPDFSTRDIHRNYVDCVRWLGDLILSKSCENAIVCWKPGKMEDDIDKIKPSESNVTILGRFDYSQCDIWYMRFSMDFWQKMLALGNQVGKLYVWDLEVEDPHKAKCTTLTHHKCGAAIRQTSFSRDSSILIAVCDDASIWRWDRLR
EZH2, sequence (Q15022 whole entry partner): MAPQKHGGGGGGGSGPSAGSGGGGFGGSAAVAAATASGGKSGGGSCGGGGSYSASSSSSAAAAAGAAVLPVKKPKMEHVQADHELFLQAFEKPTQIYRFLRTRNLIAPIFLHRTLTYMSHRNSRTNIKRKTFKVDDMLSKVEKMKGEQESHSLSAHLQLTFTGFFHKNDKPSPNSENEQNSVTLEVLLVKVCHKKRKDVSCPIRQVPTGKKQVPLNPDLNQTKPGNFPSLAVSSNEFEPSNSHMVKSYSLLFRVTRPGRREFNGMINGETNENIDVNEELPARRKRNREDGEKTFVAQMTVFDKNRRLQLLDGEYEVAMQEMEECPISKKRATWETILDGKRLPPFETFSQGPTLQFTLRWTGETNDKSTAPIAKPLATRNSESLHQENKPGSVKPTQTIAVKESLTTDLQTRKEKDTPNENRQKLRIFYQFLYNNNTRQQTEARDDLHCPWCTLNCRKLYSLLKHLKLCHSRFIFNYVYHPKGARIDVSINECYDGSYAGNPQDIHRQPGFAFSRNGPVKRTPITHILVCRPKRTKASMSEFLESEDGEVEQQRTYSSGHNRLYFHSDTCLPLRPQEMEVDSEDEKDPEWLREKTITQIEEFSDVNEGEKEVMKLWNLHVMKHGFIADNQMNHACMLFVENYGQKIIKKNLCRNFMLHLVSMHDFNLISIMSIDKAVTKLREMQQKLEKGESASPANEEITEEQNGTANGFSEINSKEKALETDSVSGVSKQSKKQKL
EZH2, sequence (Q09028 whole entry partner): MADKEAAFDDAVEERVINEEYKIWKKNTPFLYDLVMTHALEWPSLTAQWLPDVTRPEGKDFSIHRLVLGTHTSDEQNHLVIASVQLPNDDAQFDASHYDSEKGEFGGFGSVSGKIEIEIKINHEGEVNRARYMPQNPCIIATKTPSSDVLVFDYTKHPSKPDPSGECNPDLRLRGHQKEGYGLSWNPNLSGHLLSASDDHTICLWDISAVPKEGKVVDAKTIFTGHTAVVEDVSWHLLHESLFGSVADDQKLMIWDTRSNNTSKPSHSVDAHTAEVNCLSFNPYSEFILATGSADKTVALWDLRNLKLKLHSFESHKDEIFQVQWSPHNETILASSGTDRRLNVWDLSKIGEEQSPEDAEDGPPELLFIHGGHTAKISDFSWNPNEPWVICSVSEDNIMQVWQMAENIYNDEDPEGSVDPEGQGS
EZH2, sequence (Q6ZN18 whole entry partner): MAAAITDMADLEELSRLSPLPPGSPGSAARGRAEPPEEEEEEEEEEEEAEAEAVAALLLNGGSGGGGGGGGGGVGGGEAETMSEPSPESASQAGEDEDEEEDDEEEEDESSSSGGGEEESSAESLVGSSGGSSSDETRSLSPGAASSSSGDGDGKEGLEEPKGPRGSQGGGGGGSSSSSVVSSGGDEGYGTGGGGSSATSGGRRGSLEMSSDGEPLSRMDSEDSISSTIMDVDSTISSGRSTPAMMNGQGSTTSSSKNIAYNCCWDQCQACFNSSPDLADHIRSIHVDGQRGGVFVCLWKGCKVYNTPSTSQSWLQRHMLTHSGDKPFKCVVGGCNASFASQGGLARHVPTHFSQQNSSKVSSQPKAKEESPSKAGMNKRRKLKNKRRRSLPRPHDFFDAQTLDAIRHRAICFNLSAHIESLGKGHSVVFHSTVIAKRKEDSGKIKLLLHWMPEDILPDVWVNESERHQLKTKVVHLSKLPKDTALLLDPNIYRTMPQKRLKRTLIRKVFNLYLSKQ
T1 sequence (Q92800 whole entry): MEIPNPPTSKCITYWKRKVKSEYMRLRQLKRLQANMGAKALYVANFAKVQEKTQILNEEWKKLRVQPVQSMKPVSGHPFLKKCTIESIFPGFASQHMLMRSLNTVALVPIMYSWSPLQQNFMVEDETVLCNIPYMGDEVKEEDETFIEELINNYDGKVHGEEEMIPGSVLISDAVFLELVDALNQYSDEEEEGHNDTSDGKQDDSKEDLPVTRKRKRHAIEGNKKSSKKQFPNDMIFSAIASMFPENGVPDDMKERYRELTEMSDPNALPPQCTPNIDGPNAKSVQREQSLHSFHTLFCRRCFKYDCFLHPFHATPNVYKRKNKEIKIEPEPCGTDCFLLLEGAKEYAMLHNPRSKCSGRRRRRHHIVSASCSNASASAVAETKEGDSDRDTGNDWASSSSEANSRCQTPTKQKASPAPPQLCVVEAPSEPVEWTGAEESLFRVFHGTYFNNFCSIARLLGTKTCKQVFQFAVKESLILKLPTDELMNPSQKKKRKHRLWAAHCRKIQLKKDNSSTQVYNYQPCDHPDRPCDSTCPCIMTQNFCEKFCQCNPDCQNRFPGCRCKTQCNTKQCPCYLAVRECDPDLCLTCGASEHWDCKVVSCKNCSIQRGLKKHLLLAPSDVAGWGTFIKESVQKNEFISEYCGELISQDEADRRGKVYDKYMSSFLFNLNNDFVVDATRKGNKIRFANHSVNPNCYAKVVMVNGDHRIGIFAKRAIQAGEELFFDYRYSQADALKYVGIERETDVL
T1 sequence (O75530 whole entry partner): as the sequence (O75530 whole entry partner) above
T1 sequence (Q15022 whole entry partner): as the sequence (Q15022 whole entry partner) above
T1 sequence (Q09028 whole entry partner): as the sequence (Q09028 whole entry partner) above
T1 sequence (Q6ZN18 whole entry partner): as the sequence (Q6ZN18 whole entry partner) above
Method for EZH1: The inhibitory activities of the synthetic compounds against EZH1 or EZH2 methyltransferase were measured. The experiment was conducted by Reaction Biology Corp., and the activity of EZH1 or EZH2 was measured using a radiometric scintillation proximity assay. […] The reaction buffer consisted of 50 mmol/L Tris-HCl (pH 8.0), 50 mmol/L NaCl, 1 mmol/L EDTA, 1 mmoL/L DTT, 1 mmol/L PMSF, and 1% DMSO. Trichloroacetic acid was added to terminate the reaction, and PVT streptavidin-coated SPA beads were added to each reaction solution, followed by further reaction at room temperature for 1 hour again. The methylation value of the substrate peptide was measured using the TopCount NXT plate reader.

In the case of `Cc1cc(C)c(CN2CCc3c(Br)c4c(c(C)c3C2=O)OC(C)([C@H]2CC[C@H](N(C)C)CC2)O4)c(=O)[nH]1` (single isomer, unassigned) [Compound 49, 9-bromo-6-((4,6-dimethyl-2-oxo-1,2-dihydropyridin-3-yl)methyl)-2-(trans-4-(dimethylamino)cyclohexyl)-2,4-dimethyl-7,8-dihydro-[1,3]dioxolo[4,5-g]isoquinolin-5(6H)-one], the “Residual amount (%) of test compound after 1 hour of reaction, Human” value (“Residual amount (%) of test compound … Human” below) in [1] is recorded as 67%. Besides, the concentration for 50% growth inhibition (GI50) with KMS-11 was 8.1 nM; in the data set with MM.1S, 1.4 nM; in the data set on RPMI8226, 6.4 nM; in data set [3] it was 0.21 nM; in [5], 1.2 to 9.7 nM; in the data set on Mino it was 2 nM. Moreover, the GI50 with MV4-11 is 3.9 nM; in the data set with RS4;11, 24 nM; in the data set on Kasumi-1, 51 nM; in the data set on JeKo-1, 42 nM; in the data set with SU-DHL-4, 11 nM. Besides, the “Residual amount (%) of test compound after 1 hour of reaction, Dog” value (shortened to “Residual amount (%) of test compound … Dog”) in data set [2] is 74%. In data set [4], the AUC came to 9960 ng·h/mL. Moreover, the half-life in data set [4] was 2.9 h. Moreover, in [6], the “Residual amount (%) of test compound after 1 hour of reaction, Mouse” value (“Residual amount (%) of test compound … Mouse” below) came to 52%. In data set [7], the “Residual amount (%) of test compound after 1 hour of reaction, Rat” value came out at 84%.
Take `COc1cc(C)[nH]c(=O)c1CN1CCc2c(Cl)c3c(c(C)c2C1=O)OC(C)([C@H]1CC[C@H](N(C)C)CC1)O3` (stereo partly drawn) [Compound 13, 9-chloro-2-(trans-4-(dimethylamino)cyclohexyl)-6-((4-methoxy-6-methyl-2-oxo-1,2-dihydropyridin-3-yl)methyl)-2,4-dimethyl-7,8-dihydro-[1,3]dioxolo[4,5-g]isoquinolin-5(6H)-one]: in [1], the “Residual amount (%) of test compound … Human” value was 82%. Moreover, the GI50 in data set [3] was 0.27 nM; in [5] (setting [8]) it was 1.8 to 9.6 nM. The AUC in [4] turned out to be 1040 ng·h/mL. In addition, the 50% inhibitory concentration (IC50) at EZH2 was 1.8 to 2.3 nM; on EZH1, 23 to 35 nM. Besides, in [6], the “Residual amount (%) of test compound … Mouse” value turned out to be 79%.
Regarding `Cc1cc(C)c(CN2CCc3c(C)c4c(c(C)c3C2=O)OC(C)([C@H]2CC[C@H](N(C)C)CC2)O4)c(=O)[nH]1` (stereo partly drawn) [Compound 39, 6-((4,6-dimethyl-2-oxo-1,2-dihydropyridin-3-yl)methyl)-2-(trans-4-(dimethylamino)cyclohexyl)-2,4,9-trimethyl-7,8-dihydro-[1,3]dioxolo[4,5-g]isoquinolin-5(6H)-one], the “Residual amount (%) of test compound … Human” value in [1] was found to be 62%. For the same molecule, the GI50 lay in the range of 0.76 to 0.99 nM in [3] and 3.2 to 8.4 nM in data set [5] (setting [8]). Further, the AUC in [4] was determined as 3650 ng·h/mL. In addition, the half-maximal inhibitory concentration (IC50) was in the range of 1.2 to 6.2 nM at EZH2 and 9.7 to 30 nM against EZH1. Besides, the “Residual amount (%) of test compound … Mouse” value in data set [6] was determined as 80%.
`CCN(c1cc(-c2ccc(CN3CCOCC3)cc2)cc(C(=O)NCc2c(C)cc(C)[nH]c2=O)c1C)C1CCOCC1` [Control A, N-((4,6-dimethyl-2-oxo-1,2-dihydropyridin-3-yl)methyl)-5-(ethyl(tetrahydro-2H-pyran-4-yl)amino)-4-methyl-4′-(morpholinomethyl)-[1,1′-biphenyl]-3-carboxamide]: the GI50 amounted to 554 nM in the data set with KMS-11; 204 nM in the data set with MM.1S; 315 nM in the data set on RPMI8226; 225 nM in the data set on Mino; 220 nM with MV4-11; 932 nM in the data set on RS4;11. For the same molecule, the results for the GI50 with Kasumi-1, with JeKo-1 and in the data set with SU-DHL-4 were greater than 1000 nM, 3580 nM and 281 nM, respectively. In addition, the “Residual amount (%) of test compound … Dog” value in data set [2] turned out to be 14%. Moreover, the AUC in data set [4] worked out at 4880 ng·h/mL. The half-life in data set [4] is 0.6 h.
Regarding `Cc1cc(C)c(CNC(=O)c2cc(Cl)c3c(c2C)O[C@@](C)([C@H]2CC[C@H](N(C)C)CC2)O3)c(=O)[nH]1` [Control B], in data set [1], the “Residual amount (%) of test compound … Human” value worked out at 65%. In addition, the GI50 is 25 nM in the data set with KMS-11; 2.3 nM in the data set with MM.1S; 7.8 nM in the data set with RPMI8226; 0.57 nM in data set [3]; 1.3 to 15 nM in [5] (setting [8]); 2.5 nM in the data set on Mino. Further, the GI50 stood at 6.1 nM in the data set on MV4-11; 62 nM with RS4;11; 324 nM in the data set on Kasumi-1; 71 nM in the data set on JeKo-1; 21 nM in the data set with SU-DHL-4. Further, the “Residual amount (%) of test compound … Dog” value in data set [2] was 83%. Also, the AUC in [4] lay within 3420 to 5000 ng·h/mL. Moreover, in data set [4], the half-life is 1 h. For the same molecule, in data set [6], the “Residual amount (%) of test compound … Mouse” value stood at 50%. In [7], the “Residual amount (%) of test compound after 1 hour of reaction, Rat” value is 81%.
